In experiment [1] the test system is differentiated human THP-1 cells. In words: stimulated release of TNF-α from differentiated human THP-1 cells (ELISA, dose-response). In kind it is cell-based. The method, then: A screening campaign was conducted with nearly 100,000 compounds [(a) Whitby et al., Acc. Chem. Res. 2012, 45:1698-1709; and (b) Boger et al., Angew. Chem. Int. Ed. 2003, 42:4138-4176], using a newly developed functional assay that measured the stimulated release of TNF-α from treated human THP-1 cells partially differentiated along the macrophage line [unpublished results of the inventors and co-workers]. […] The libraries screened in the efforts represent a unique compound collection populated by nontraditional compounds [(a) Whitby et al., Acc. Chem. Res. 2012, 45:1698-1709; and (b) Boger et al., Angew. Chem. Int. Ed. 2003, 42:4138-4176] designed to target protein-protein [(a) Shaginian et al., J. Am. Chem. Soc. 2009, 131:5564-5572; and (b) Whitby et al., J. Am. Chem. Soc. 2011, 133:10184-10194] or protein-DNA interactions [Stover et al., J. Am. Chem. Soc. 2009, 131:3342-3348] as well as the major enzyme classes [Otrubova et al., Bioorg. Med. Chem. Lett. 2014, 24:3807-3813].
Hits were confirmed in an ELISA assay for stimulated TNF-α release from human PMA differentiated THP-1 cells and this assay was used for establishing dose-response curves and measured EC50 values.
A general note: ELISA stands for enzyme-linked immunosorbent assay.

The next experiment relates to mouse macrophages. In words: stimulated release of TNF-α from mouse macrophages. It is filed as cell-based. The source says: EC50 values are derived from dose-response curves for the stimulated release of TNF-α from differentiated THP-1 cells or mouse macrophages are shown beneath each appropriate structural formula of Compounds 8-12. Half maximal effective concentration (EC50) refers to the concentration of a drug, antibody or toxicant that induces a response halfway between the baseline and maximum after a specified exposure time. It is commonly used as a measure of a drug's potency.

Setting [2] is: Homo sapiens, THP-1, running text, read-out: EC50, stimulated release of TNF-α from differentiated human THP-1 cells.

Read-outs that look alike come from different tables or passages of the source.

The EC50 is the midpoint of the concentration-response curve. Take `O=C(N[C@H]1C[C@@H]1c1ccccc1)[C@@H]1CN(C(=O)c2c(F)c(F)c(C(=O)N3C[C@@H](C(=O)N[C@H]4C[C@@H]4c4ccccc4)[C@H](C(=O)N[C@H]4C[C@@H]4c4ccccc4)C3)c(F)c2F)C[C@H]1C(=O)N[C@H]1C[C@@H]1c1ccccc1` [Compound 60, (3S,3′S,4S,4′S)-1,1′-(Perfluoroterephthaloyl)-bis(N^3,N^4-bis((1S,2R)-2-phenylcyclopropyl)pyrrolidine-3,4-dicarboxamide)]: the EC50 in experiment [1] (Homo sapiens, THP-1, Table 3, TNF-α release from human THP-1 cells, read-out: EC50 (nM) (THP-1)) was 110 nM; in the experiment on mouse macrophages (Macrophage, Table 3, TNF-α release from mouse macrophages, read-out: EC50 (nM) (mouse)), above 5000 nM.

On to `CCCCCCCCCCCCCCCCNC(=O)C1CCN(C(=O)c2ccc(C(=O)N3C[C@@H](C(=O)N[C@H]4C[C@@H]4c4ccccc4)[C@H](C(=O)N[C@H]4C[C@@H]4c4ccccc4)C3)cc2)C1` (stereo in doubt) [Compound 129, (3S,4S)-1-(4-((S)-3-(Hexadecylcarbamoyl)-pyrrolidine-1-carbonyl)benzoyl)—N^3,N^4-bis((1S,2R)-2-phenylcyclopropyl)pyrrolidine-3,4-dicarboxamide], for which the EC50 in experiment [1] (table of 125-132 (one lipid side chain, R and S), human THP-1 cells, read-out: EC50 (nM) (THP-1)) is 5 nM; in the experiment on mouse macrophages (table of 125-132 (one lipid side chain, R and S), mouse macrophages, read-out: EC50 (nM) (mouse)) it was above 5000 nM.

Consider `O=C(NCCc1ccc(F)cc1)[C@@H]1CN(C(=O)C#CC(=O)N2C[C@@H](C(=O)NCCc3ccc(F)cc3)[C@H](C(=O)NCCc3ccc(F)cc3)C2)C[C@H]1C(=O)NCCc1ccc(F)cc1` [Compound 100, (3S,3′S,4S,4′S)-1,1′-(But-2-ynedi-oyl)bis(N^3,N^4-bis(4-fluorophenethyl)pyrrolidine-3,4-dicarboxamide)], for which the EC50 is above 5000 nM in experiment [1] (Homo sapiens, THP-1, Table 7, TNF-α release from human THP-1 cells, read-out: EC50 (nM) (THP-1)) and above 5000 nM in the experiment on mouse macrophages (Macrophage, Table 7, TNF-α release from mouse macrophages, read-out: EC50 (nM) (mouse)).

Take `O=C(N[C@H]1C[C@@H]1c1ccccc1)[C@@H]1CN(C(=O)c2ccc(C(=O)N3CCCC3)cc2)C[C@H]1C(=O)N[C@H]1C[C@@H]1c1ccccc1` [Compound 30, (3S,4S)—N^3,N^4-Bis((S, 2R)-2-phenyl-cyclopropyl)-1-(4-(pyrrolidine-1-carbonyl)benzoyl)-pyrrolidine-3,4-dicarboxamide]: the EC50 in experiment [1] (setting [2]) was found to be 2000 nM. In addition, the “fold less active/potent than diprovocim-1 (3)” value in experiment [1] (human THP-1 cells) is reported as 20,000 fold. Further, the “fold less active than 29” value in the experiment with mouse macrophages (printed as in mouse macrophages) is on record as 10 fold.

Take `O=C(N[C@H]1C[C@@H]1c1ccccc1)[C@@H]1CN(C(=O)c2cccc3c(C(=O)N4C[C@@H](C(=O)N[C@H]5C[C@@H]5c5ccccc5)[C@H](C(=O)N[C@H]5C[C@@H]5c5ccccc5)C4)cccc23)C[C@H]1C(=O)N[C@H]1C[C@@H]1c1ccccc1` [Compound 47, (3S,3′S,4S,4′S)-1,1′-(Naphthalene-1,5-dicarbonyl)bis(N^3,N^4-bis((1S,2R)-2-phenylcyclopropyl)-pyrrolidine-3,4-dicarboxamide)]: the EC50 in experiment [1] (Homo sapiens, THP-1, Table 2, TNF-α release from human THP-1 cells, read-out: EC50 (nM) (THP-1)) was above 5000 nM; in the experiment on mouse macrophages (Macrophage, Table 2, TNF-α release from mouse macrophages, read-out: EC50 (nM) (mouse)), above 5000 nM.

`CCCCCCCCCCCCCCNC(=O)[C@H]1CCN(C(=O)c2ccc(C(=O)N3C[C@@H](C(=O)N[C@H]4C[C@@H]4c4ccccc4)[C@H](C(=O)N[C@H]4C[C@@H]4c4ccccc4)C3)cc2)C1` [Compound 130, (3S,4S)—N^3,N^4-Bis((1S,2R)-2-phenylcyclopropyl)-1-(4-((S)-3-(tetradecylcarbamoyl)pyrrolidine-1-carbonyl)benzoyl)pyrrolidine-3,4-dicarboxamide]: the EC50 in experiment [1] (Homo sapiens, THP-1, table of 125-132 (one lipid side chain, R and S), human THP-1 cells, read-out: EC50 (nM) (THP-1)) came to 4 nM; in the experiment with mouse macrophages (Macrophage, table of 125-132 (one lipid side chain, R and S), mouse macrophages, read-out: EC50 (nM) (mouse)) it was 240 nM.

On to `O=C(NCCc1cccc(F)c1)[C@H]1CN(C(=O)c2ccc(C(=O)N3C[C@H](C(=O)NCCc4cccc(F)c4)[C@@H](C(=O)NCCc4cccc(F)c4)C3)cc2)C[C@@H]1C(=O)NCCc1cccc(F)c1` (racemic) [Compound 84, 1,1′-Terephthaloylbis(N^3,N^4-bis(3-fluoro-phenethyl)pyrrolidine-trans-3,4-dicarboxamide)], for which the EC50 in experiment [1] (Homo sapiens, THP-1, Table 5 footnote, racemates, TNF-α release from human differentiated THP-1 cells, read-out: EC50) is 1000 nM; in experiment [1] (setting [2]) it was 1000 nM. In experiment [1] (human THP-1 cells, racemates), the “fold less active (3- vs 4-fluorophenethylamide)” value is listed as above 10 fold.

Regarding `O=C(N[C@H]1C[C@@H]1c1ccccc1)[C@@H]1CN(C(=O)c2ccc(C(=O)N3C[C@@H](C(=O)N[C@H]4C[C@@H]4c4ccccc4)[C@H](C(=O)N[C@H]4C[C@@H]4c4ccccc4)C3)cc2)C[C@H]1C(=O)N[C@H]1C[C@@H]1c1ccccc1` [Compound 3, (3S,3′S,4S,4′S)-1,1′-Terephthaloylbis(N^3,N^4-bis((1S,2R)-2-phenylcyclopropyl)pyrrolidine-3,4-dicarboxamide)], the concentration for a half-maximal effect (EC50) in the experiment with mouse macrophages (Macrophage, Table 1, TNF-α release from mouse macrophages, read-out: EC50 (nM) (mouse)) amounted to 1 nM; with mouse macrophages (Mus musculus, Macrophage, Scheme 1, footnote b, read-out: EC50 TNF-α release from mouse macrophages), 1 nM; in the experiment on mouse macrophages (Mus musculus, Macrophage, read-out: EC50, stimulated release of TNF-α from mouse macrophages), 1 nM.

Turning to `O=C(NCCc1ccccc1)[C@@H]1CN(C(=O)c2ccc(C(=O)N3C[C@@H](C(=O)NCCc4ccccc4)[C@H](C(=O)N[C@H]4C[C@@H]4c4ccccc4)C3)cc2)C[C@H]1C(=O)NCCc1ccccc1` (relative stereo) [Compound 9], the “activity in stimulating TNF-α release from human THP-1 cells (in words)” value in experiment [1] (tested up to 5 μM where stated) was “inactive”.

For the compound `O=C(CCN(CCC(=O)N[C@H]1C[C@@H]1c1ccccc1)C(=O)c1ccc(C(=O)N(CCC(=O)N[C@H]2C[C@@H]2c2ccccc2)CCC(=O)N[C@H]2C[C@@H]2c2ccccc2)cc1)N[C@H]1C[C@@H]1c1ccccc1` [Compound 34, N^1,N^1,N^4,N^4-Tetrakis(3-oxo-3-(((1S,2R)-2-phenyl-cyclopropyl)amino)propyl)terephthalamide], the “activity in stimulating TNF-α release from mouse macrophages (in words)” value in the experiment on mouse macrophages (tested up to 5 μM where stated) was “inactive”.

For `O=C(NCCc1ccccc1)[C@@H]1CN(C(=O)c2ccc(C(=O)N3C[C@@H](C(=O)NCCc4ccccc4)[C@H](C(=O)N[C@H]4C[C@@H]4c4ccccc4)C3)cc2)C[C@H]1C(=O)N[C@H]1C[C@@H]1c1ccccc1` (stereo in doubt) [Compound 10, trans,trans-1, 1′-Terephthaloylbis(N^3-phenethyl-N^4-(trans-2-phenylcyclopropyl)pyrrolidine-3,4-dicarboxamide)], in experiment [1] (setting [2]), the concentration giving a half-maximal response (EC50) is 80 nM.

In the case of `O=C(N[C@H]1C[C@@H]1c1ccccc1)[C@H]1CCN(C(=O)c2ccc(C(=O)N3C[C@@H](C(=O)N[C@H]4C[C@@H]4c4ccccc4)[C@H](C(=O)N[C@H]4C[C@@H]4c4ccccc4)C3)cc2)C1` [Compound 29, (3S,4S)—N^3,N^4-Bis((1S,2R)-2-phenyl-cyclopropyl)-1-(4-((S)-3-(((1S,2R)-2-phenyl-cyclopropyl)-carbamoyl)-pyrrolidine-1-carbonyl)-benzoyl)pyrrolidine-3,4-dicarboxamide], the EC50 in experiment [1] (setting [2]) is 200 nM. Further, the “fold less active/potent than diprovocim-1 (3)” value in experiment [1] (human THP-1 cells) stood at 2000 fold.

Regarding `O=C(NCCc1ccc(F)cc1)[C@H]1CN(C(=O)c2ccc(C(=O)N3C[C@H](C(=O)NCCc4ccc(F)cc4)[C@@H](C(=O)NCCc4ccc(F)cc4)C3)cc2)C[C@@H]1C(=O)NCCc1ccc(F)cc1` (racemic) [Compound 69, 1,1′-Terephthaloylbis(N^3,N^4-bis(4-fluoro-phenethyl)-yrrolidine-trans-3,4-dicarboxamide)], the EC50 in experiment [1] (setting [2]) is 100 nM.

`O=C(NCCc1ccc(F)cc1)[C@H]1CN(C(=O)c2ccc(C(=O)N3C[C@H](C(=O)NCCc4ccc(F)cc4)[C@@H](C(=O)NCCc4ccc(F)cc4)C3)cc2)C[C@@H]1C(=O)NCCc1ccc(F)cc1` [Compound 98, (3R,3′R,4R,4′R)-1,1′-Terephthaloyl-bis(N^3,N^4-bis-(4-fluorophenethyl)pyrrolidine-3,4-dicarboxamide)]: the EC50 in experiment [1] (Homo sapiens, THP-1, running text b169, read-out: EC50, stimulated release of TNF-α from human THP-1 cells) is above 5000 nM. The “fold less potent than the all S enantiomer 4” value in experiment [1] (human THP-1 cells) is reported as above 100 fold.

With `O=C(NCCc1ccc(F)cc1)[C@H]1CN(C(=O)c2ccc(C(=O)N3C[C@@H](C(=O)NCCc4ccc(F)cc4)[C@H](C(=O)NCCc4ccc(F)cc4)C3)cc2)C[C@@H]1C(=O)NCCc1ccc(F)cc1` [Compound 99, (3S,4S)-1-(4-((3R,4R)-3,4-Bis((4-fluorophen-ethyl)carbamoyl)pyrrolidine-1-carbonyl)benzoyl)—N^3,N^4-bis(4-fluorophenethyl)pyrrolidine-3,4-dicarboxamide], the EC50 in experiment [1] (setting [2]) was 70 nM.

The record behind these values is patent publication US11040959B2, “Diprovocims: a new and potent class of TLR agonists” (The Scripps Research Institute, priority 2016, dated 2021).
